# Where no end group is shown, it is not given here.
# Key:
# MRSA T144 [1] = test: microbe, parasite or virus in culture; type: cell-based, Staphylococcus aureus; conditions: T144
# Protocol: (§1) S. aureus ATCC 29213, E. coli ATCC 25922, S. enteritidis ATCC 13076 and A. baumannii ATCC 19609 were obtained from the American Type Culture Collection (ATCC). The remaining strains used in the experiment were all preserved strains in our laboratory. All strains were cultured in nutrient broth overnight to the logarithmic phase at 37 °C prior to each experiment.
# (§2) The MICs of all drugs were determined by micro-broth dilution method according to CLSI 2018 guidelines. Briefly, a single colony of the bacterial strain was transferred to 1 mL of Mueller Hilton broth (MHB) and overnight at 37 °C and then 10 μL were cultured in a new 1 mL medium for 4 to 6 h, and then the bacterial culture at the logarithmic phase was diluted to 1 × 10^6 CFUs/mL. The assay was performed by adding 100 μL of each peptide solution at various concentrations (0.25 to 128 μg/mL) and 100 μL of diluted bacterial culture to different wells of a 96-well microtiter plate (Corning, NY, USA). After incubation at 37 °C for 16 to 18 h and then read its MIC value. MIC value is defined as the lowest drug concentration without visible bacteria.
# MRSA 1530 = test: microbe, parasite or virus in culture; type: cell-based, Staphylococcus aureus; conditions: 1530
# Protocol: as §1, §2
# [2] = system: P. cibarius HNCF44W (blaNDM-1+ tet(X6)); test: organism not typed; type: cell-based
# Protocol: as §1, §2
# MRSA T144 [3] = type: cell-based, Staphylococcus aureus
# Protocol: as §2
# (§3) Then, the antibacterial activity of the peptides affected by different temperatures and pH were determined according to the determination steps of MICs test.
# (§4) In MHB medium, Na^+, K^+, Mg^2+ and Ca^2+ with the final concentrations of 10 mM, fetal bovine serum, plasma or DMEM medium (Hyclone, Logan, UT, USA) with the final concentrations of 10% was added, and then MIC values were measured to evaluate the effects of different cations, serum and plasma on the antibacterial activity of peptides.
# (§5) The peptide was incubated with protease (pepsin, trypsin and papain) (Solarbio, Beijing, China) with a final concentration of 1 mg/mL at 37 °C for 1 h, then the mixture of peptide and protease was heated at 100 °C for 30 min, then centrifuged at 13,000× g for 30 min, and the supernatant was taken for MIC determination.
# E. coli G6 (blaNDM-5) = test: microbe, parasite or virus in culture; type: cell-based; conditions: G6 (blaNDM-5)
# Protocol: as §1, §2
# [4] = system: P. aeruginosa (VIM + tmexCD1-torJ1); test: microbe, parasite or virus in culture; type: cell-based; conditions: VIM + tmexCD1-torJ1
# Protocol: as §1, §2
# S. aureus G16 (RIF^R) = test: microbe, parasite or virus in culture; type: cell-based; conditions: S. aureus G16 (RIF^R); micro-broth dilution CLSI 2018, MHB, 37 °C, 16 to 18 h
# Protocol: as §1, §2
# E. coli CP131 (mcr-3) = test: microbe, parasite or virus in culture; type: cell-based; conditions: CP131 (mcr-3)
# Protocol: as §1, §2
# E. coli C3 (blaNDM-1) = test: microbe, parasite or virus in culture; type: cell-based; conditions: C3 (blaNDM-1)
# Protocol: as §1, §2
# E. coli B3-1 (tet(X4)) = test: microbe, parasite or virus in culture; type: cell-based; conditions: B3-1 (tet(X4))
# Protocol: as §1, §2
# A. baumannii ATCC 19609 = test: microbe, parasite or virus in culture; type: cell-based; conditions: ATCC 19609
# Protocol: as §1, §2
# [5] = system: E. faecalis A4 (VRE, VanA); test: microbe, parasite or virus in culture; type: cell-based; conditions: A4 (VRE, VanA)
# Protocol: as §1, §2
# [6] = system: S. enteritidis ATCC 13076; test: microbe, parasite or virus in culture; type: cell-based; conditions: ATCC 13076
# Protocol: as §1, §2
# P. aeruginosa PA14 = test: microbe, parasite or virus in culture; type: cell-based; conditions: PA14
# Protocol: as §1, §2
# [7] = system: E. coli B2 (blaNDM-5 + mcr-1); test: microbe, parasite or virus in culture; type: cell-based; conditions: B2 (blaNDM-5 + mcr-1)
# Protocol: as §1, §2
# S. aureus ATCC 29213 = test: microbe, parasite or virus in culture; type: cell-based; conditions: ATCC 29213
# Protocol: as §1, §2
# E. coli ATCC 25922 = test: microbe, parasite or virus in culture; type: cell-based; conditions: ATCC 25922
# Protocol: as §1, §2
# E. coli 1F28 (tet(X4)) = test: microbe, parasite or virus in culture; type: cell-based; conditions: 1F28 (tet(X4))
# Protocol: as §1, §2
# [8] = system: S. aureus 215 (cfr + LZD^R); test: microbe, parasite or virus in culture; type: cell-based; conditions: S. aureus 215 (cfr + LZD^R); micro-broth dilution CLSI 2018, MHB, 37 °C, 16 to 18 h
# Protocol: as §1, §2
# E. coli G92 (mcr-1) = test: microbe, parasite or virus in culture; type: cell-based; conditions: G92 (mcr-1)
# Protocol: as §1, §2
# E. coli B2 = type: cell-based
# Protocol: as §2, §3, §4, §5
sequence,measurement,setting,value
GWKSFFKKFKHVWK [GK-3],MIC,MRSA T144 [1],8 µg/mL
same,MIC,MRSA 1530,16 µg/mL
same,MIC,[2],8 µg/mL
same,MIC after treatment at 121 °C,MRSA T144 [3]; T144,8 µg/mL
same,MIC in DMEM (10%),MRSA T144 [3]; T144,4 µg/mL
same,MIC in Plasma (10%),MRSA T144 [3]; T144,4 µg/mL
same,MIC in Serum (10%),MRSA T144 [3]; T144,8 µg/mL
same,MIC in presence of Ca^2+,MRSA T144 [3]; T144,>128 µg/mL
same,MIC in presence of K^+,MRSA T144 [3]; T144,4 µg/mL
same,MIC in presence of Mg^2+,MRSA T144 [3]; T144,8 µg/mL
same,MIC in presence of Na^+,MRSA T144 [3]; T144,2 µg/mL
same,"MIC, Control",MRSA T144 [3]; T144,8 µg/mL
same,MIC after Papain treatment,"MRSA T144 [3]; T144, 1 h",>128 µg/mL
same,MIC after Pepsin treatment,"MRSA T144 [3]; T144, 1 h",64 µg/mL
same,MIC after Trypsin treatment,"MRSA T144 [3]; T144, 1 h",>128 µg/mL
same,MIC after treatment at 40 °C,"MRSA T144 [3]; T144, 1 h",4 µg/mL
same,MIC after treatment at 60 °C,"MRSA T144 [3]; T144, 1 h",2 µg/mL
same,MIC after treatment at 80 °C,"MRSA T144 [3]; T144, 1 h",4 µg/mL
same,MIC after treatment at 100 °C,"MRSA T144 [3]; T144, 1 h",8 µg/mL
same,MIC after treatment at pH 2,"MRSA T144 [3]; T144, 1 h, pH 2",4 µg/mL
same,MIC after treatment at pH 4,"MRSA T144 [3]; T144, 1 h, pH 4",4 µg/mL
same,MIC after treatment at pH 6,"MRSA T144 [3]; T144, 1 h, pH 6",4 µg/mL
same,MIC after treatment at pH 8,"MRSA T144 [3]; T144, 1 h, pH 8",4 µg/mL
same,MIC after treatment at pH 10,"MRSA T144 [3]; T144, 1 h, pH 10",4 µg/mL
same,MIC after treatment at pH 12,"MRSA T144 [3]; T144, 1 h, pH 12",4 µg/mL
same,MIC,E. coli G6 (blaNDM-5),4 µg/mL
same,MIC,[4],16 µg/mL
same,MIC,S. aureus G16 (RIF^R),8 µg/mL
same,MIC,E. coli CP131 (mcr-3),2 µg/mL
same,MIC,E. coli C3 (blaNDM-1),4 µg/mL
same,MIC,E. coli B3-1 (tet(X4)),2 µg/mL
same,MIC,A. baumannii ATCC 19609,4 µg/mL
same,MIC,[5],32 µg/mL
same,MIC,[6],4 µg/mL
same,MIC,P. aeruginosa PA14,64 µg/mL
same,MIC,[7],4 µg/mL
same,MIC,S. aureus ATCC 29213,4 µg/mL
same,MIC,E. coli ATCC 25922,8 µg/mL
same,MIC,E. coli 1F28 (tet(X4)),16 µg/mL
same,MIC,[8],4 µg/mL
same,MIC,E. coli G92 (mcr-1),2 µg/mL
same,MIC after treatment at 121 °C,E. coli B2; B2,4 µg/mL
same,MIC in DMEM (10%),E. coli B2; B2,4 µg/mL
same,MIC in Plasma (10%),E. coli B2; B2,0.5 µg/mL
same,MIC in Serum (10%),E. coli B2; B2,8 µg/mL
same,MIC in presence of Ca^2+,E. coli B2; B2,>128 µg/mL
same,MIC in presence of K^+,E. coli B2; B2,2 µg/mL
same,MIC in presence of Mg^2+,E. coli B2; B2,32 µg/mL
same,MIC in presence of Na^+,E. coli B2; B2,2 µg/mL
same,"MIC, Control",E. coli B2; B2,4 µg/mL
same,MIC after Papain treatment,"E. coli B2; B2, 1 h",>128 µg/mL
same,MIC after Pepsin treatment,"E. coli B2; B2, 1 h",64 µg/mL
same,MIC after Trypsin treatment,"E. coli B2; B2, 1 h",>128 µg/mL
same,MIC after treatment at 40 °C,"E. coli B2; B2, 1 h",2 µg/mL
same,MIC after treatment at 60 °C,"E. coli B2; B2, 1 h",2 µg/mL
same,MIC after treatment at 80 °C,"E. coli B2; B2, 1 h",2 µg/mL
same,MIC after treatment at 100 °C,"E. coli B2; B2, 1 h",4 µg/mL
same,MIC after treatment at pH 2,"E. coli B2; B2, 1 h, pH 2",4 µg/mL
same,MIC after treatment at pH 4,"E. coli B2; B2, 1 h, pH 4",2 µg/mL
same,MIC after treatment at pH 6,"E. coli B2; B2, 1 h, pH 6",2 µg/mL
same,MIC after treatment at pH 8,"E. coli B2; B2, 1 h, pH 8",2 µg/mL
same,MIC after treatment at pH 10,"E. coli B2; B2, 1 h, pH 10",2 µg/mL
same,MIC after treatment at pH 12,"E. coli B2; B2, 1 h, pH 12",2 µg/mL
